Results as given in patent US9980993B2, “Nutraceutical supplement with Lactobacillus rhamnosus” (NWO Stem Cure, LLC, priority 2014, dated 2018).

Tested on: human MSC
Assay: Anti-oxidative stress testing, LIVE/DEAD Viability/Cytotoxicity Assay with H2O2
Type: cell-based
Settings: MSCs, 12 hours of oxidative stress (100 μM H2O2)
Protocol: The percentage of live and dead cells was determined simultaneously by measuring intracellular esterase activity and plasma membrane integrity using the LIVE/DEAD® Viability/Cytotoxicity Assay Kit (Life Technologies). Briefly, human MSC were plated on 24 wells plate. On, next day cells were treated with ingredients and 100 μM H2O2 for 12 hr. The supernatant media from each well was collected into microtubes and cells were washed with 1×PBS, followed by collection of washes into respective microtubes to collect any floating or dead cells. The cells attached to the bottom of the plate were incubated in 1×PBS in a 37° C. incubator. The microtubes were centrifuged at 2000 rpm for 3 min to get the cell pellet. After removing supernatant, cell pellet was resuspended into 1×PBS containing 2 μM calcein AM and 4 μM ethidium/homodimer. […] The cells were then imaged under 10× objective using fluorescence microscope (Olympus IX71).
The percentage of live and dead cells was determined simultaneously by measuring intracellular esterase activity and plasma membrane integrity using the LIVE/DEAD® Viability/Cytotoxicity Assay Kit (Life Technologies). […] The cells were then imaged under 10× objective using fluorescence microscope (Olympus IX71).
Fluorescence microscope images showing a percentage of live and dead MSCs in 24 wells after 12 hours of treatment with oxidative stress (100 μM H2O2) were examined. […]

C=C1CC[C@H](O)C/C1=C/C=C1\CCC[C@]2(C)[C@@H]([C@H](C)CCCC(C)C)CC[C@@H]12 [Vitamin D alone (0.3 mg), cholecalciferol]
Cell Survival Rate Measured by Fluorescence Microscope (%): 2.5%
